The values below come from the NIST ThermoML archive (doi:10.1016/j.jct.2016.07.048).

± gives the expanded uncertainty stated by the source.

The conditions of series [1]: Crystal; DTA.
Series [2] is described as follows: Molar enthalpy of transition or fusion. The following applies: Crystal; DSC.

With `CCCCCCOC(=O)NC(=N)c1ccc(NCc2nc3cc(C(=O)N(CCC(=O)OCC)c4ccccn4)ccc3n2C)cc1.CS(=O)(=O)O` [Dabigatran etexilate mesylate], in series [1], the Normal melting temperature is 190.09 ± 1.1 °C. In series [2], the “Molar enthalpy of transition or fusion” value was 15.4 ± 0.693 kcal/mol.
